# Results as given in ChEMBL document CHEMBL1201862, “PubChem BioAssay data set” (2004).
#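 In this assay, cells in 96-well plates receive the compound at five concentrations for 48 hours. Endpoints are linearly interpolated between the surrounding concentrations. The concentration for 50% growth inhibition is given as GI50.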 Activity calls are given as the source filed them. Rule as the data show it: active = GI50 up to about 1.1 µM and inactive = higher.
# Key:
# Experiment in all cases: inhibition of tumour cell growth, NCI panel, 48 h
# [1] = tested on: SK-MEL-28
# [2] = tested on: HOP-92
# [3] = tested on: HCC 2998
# [4] = tested on: OVCAR-4
# [5] = tested on: 786-0
# [6] = tested on: ACHN
# [7] = tested on: SR
# [8] = tested on: SF-539
# [9] = tested on: SN12C
# [10] = tested on: A549
# [11] = tested on: M14
# [12] = tested on: Hs-578T
# [13] = tested on: PC-3
# [14] = tested on: RPMI-8226
# [15] = tested on: MDA-MB-231
# [16] = tested on: U-251
# [17] = tested on: NCI-H23
# [18] = tested on: A498
Compound,GI50 [1],GI50 [2],GI50 [3],GI50 [4],GI50 [5],GI50 [6],GI50 [7],GI50 [8],GI50 [9],GI50 [10],GI50 [11],GI50 [12],GI50 [13],GI50 [14],GI50 [15],GI50 [16],GI50 [17],GI50 [18]
Cc1cc2c(cc1C)C(=O)C1(C2)Cc2c(C)ccc(C)c2C1=O (configuration not stated),> 100 µM (inactive),> 100 µM (inactive),> 100 µM (inactive),> 100 µM (inactive),> 100 µM (inactive),> 100 µM (inactive),> 100 µM (inactive),> 100 µM (inactive),> 100 µM (inactive),> 100 µM (inactive),> 100 µM (inactive),84.5 µM (inactive),> 100 µM (inactive),> 100 µM (inactive),> 100 µM (inactive),> 100 µM (inactive),–,–
CC(C)(C)C(=O)c1c(O)c2ccccc2c2ccccc2c1=O,58.7 µM (inactive),32.4 µM (inactive),–,62.1 µM (inactive),> 100 µM (inactive),> 100 µM (inactive),–,> 100 µM (inactive),> 100 µM (inactive),> 100 µM (inactive),95.3 µM (inactive),85.7 µM (inactive),> 100 µM (inactive),–,> 100 µM (inactive),33.3 µM (inactive),41 µM (inactive),50.6 µM (inactive)
O/N=C1\Nc2ccccc2OCc2cc(Br)c(Br)cc2COc2ccccc2N\C1=N/O,22.6 µM (inactive),12.6 µM (inactive),7.71 µM (inactive),10.7 µM (inactive),10 µM (inactive),5.97 µM (inactive),2.06 µM (inactive),–,11.9 µM (inactive),17.6 µM (inactive),21.2 µM (inactive),31.7 µM (inactive),13.4 µM (inactive),10.8 µM (inactive),14.8 µM (inactive),13.8 µM (inactive),13.8 µM (inactive),17.5 µM (inactive)
C[N+]12C=CC=C1C(N1CCCC1)c1sc(-c3ccc(Cl)cc3)cc12 (configuration not stated),17.2 µM (inactive),–,15.7 µM (inactive),18.2 µM (inactive),15.4 µM (inactive),46 µM (inactive),11.6 µM (inactive),–,13.7 µM (inactive),28.6 µM (inactive),17.1 µM (inactive),22.1 µM (inactive),16.3 µM (inactive),10.6 µM (inactive),18.3 µM (inactive),12.1 µM (inactive),–,18.8 µM (inactive)
COC1=C(OC)C(=O)C(Cc2c(-c3ccccc3)nc3sc(Cl)cn23)=C(C)C1=O,13.8 µM (inactive),–,24.4 µM (inactive),3.61 µM (inactive),19.6 µM (inactive),16 µM (inactive),22.9 µM (inactive),17.1 µM (inactive),16.4 µM (inactive),21.7 µM (inactive),15.8 µM (inactive),18.1 µM (inactive),16.6 µM (inactive),13.5 µM (inactive),11 µM (inactive),18.5 µM (inactive),17.8 µM (inactive),20.2 µM (inactive)
O=C1c2ccccc2C(=O)c2c1c1cc(O)ccc1n2Cc1ccc(Cl)cc1Cl,17.3 µM (inactive),–,–,1.9 µM (inactive),2.75 µM (inactive),–,3.61 µM (inactive),3.97 µM (inactive),3.88 µM (inactive),3.27 µM (inactive),15.9 µM (inactive),14 µM (inactive),1.61 µM (inactive),7.18 µM (inactive),3.85 µM (inactive),3.46 µM (inactive),7.23 µM (inactive),17.2 µM (inactive)
CCC1(CC)C(=O)OC(=O)C1(CC)CC,> 100 µM (inactive),–,> 100 µM (inactive),> 100 µM (inactive),> 100 µM (inactive),> 100 µM (inactive),> 100 µM (inactive),> 100 µM (inactive),–,> 100 µM (inactive),> 100 µM (inactive),15.2 µM (inactive),> 100 µM (inactive),> 100 µM (inactive),> 100 µM (inactive),> 100 µM (inactive),> 100 µM (inactive),> 100 µM (inactive)
CCc1[nH]c(=O)c2oc3cc4ccccc4cc3c2c1C(=O)O,–,> 10 µM (inactive),> 10 µM (inactive),> 10 µM (inactive),> 10 µM (inactive),> 10 µM (inactive),> 10 µM (inactive),> 10 µM (inactive),> 10 µM (inactive),> 10 µM (inactive),> 10 µM (inactive),> 10 µM (inactive),> 10 µM (inactive),–,0.00588 µM (active),–,–,–
CCOC(=O)C1(C#N)C(C#N)(C#N)C1(C#N)C#N,> 100 µM (inactive),> 100 µM (inactive),> 100 µM (inactive),> 100 µM (inactive),> 100 µM (inactive),> 100 µM (inactive),88.5 µM (inactive),–,> 100 µM (inactive),> 100 µM (inactive),> 100 µM (inactive),> 100 µM (inactive),> 100 µM (inactive),> 100 µM (inactive),> 100 µM (inactive),> 100 µM (inactive),> 100 µM (inactive),> 100 µM (inactive)
OCc1ccc2c(c1)CC1(Cc3ccc(/C=N/O)cc3C1)C2 (configuration not stated),6.82 µM (inactive),7.74 µM (inactive),1.97 µM (inactive),1.92 µM (inactive),10.4 µM (inactive),7.08 µM (inactive),–,2.72 µM (inactive),2.61 µM (inactive),4.93 µM (inactive),1.99 µM (inactive),2.45 µM (inactive),3.74 µM (inactive),2.25 µM (inactive),6.27 µM (inactive),2.86 µM (inactive),3.19 µM (inactive),27.7 µM (inactive)
CC1=NNC(=O)C1C1CC(c2c[nH]c3ccccc23)=NNC1=S (configuration not stated),> 100 µM (inactive),> 100 µM (inactive),–,–,> 100 µM (inactive),> 100 µM (inactive),–,> 100 µM (inactive),> 100 µM (inactive),> 100 µM (inactive),> 100 µM (inactive),> 100 µM (inactive),> 100 µM (inactive),36.2 µM (inactive),> 100 µM (inactive),> 100 µM (inactive),64 µM (inactive),> 100 µM (inactive)
CC1(C)[C@@H](Cn2cnc3c(N)ncnc32)CC[C@@]1(C)CO,> 100 µM (inactive),> 100 µM (inactive),53 µM (inactive),> 100 µM (inactive),> 100 µM (inactive),81.5 µM (inactive),11.9 µM (inactive),–,> 100 µM (inactive),> 100 µM (inactive),> 100 µM (inactive),> 100 µM (inactive),66.2 µM (inactive),–,> 100 µM (inactive),> 100 µM (inactive),55 µM (inactive),> 100 µM (inactive)
Cc1ccc(/C(=C\C(=O)C(=O)NC23CC4CC(CC(C4)C2)C3)Sc2ccccc2)cc1,> 10 µM (inactive),–,> 10 µM (inactive),6.43 µM (inactive),> 10 µM (inactive),> 10 µM (inactive),> 10 µM (inactive),> 10 µM (inactive),> 10 µM (inactive),–,> 10 µM (inactive),> 10 µM (inactive),4.31 µM (inactive),9.02 µM (inactive),> 10 µM (inactive),> 10 µM (inactive),> 10 µM (inactive),> 10 µM (inactive)
C[C@]12CCC3c4ccc(O)cc4CC[C@H]3C1CC(=O)N(CCN1CCCC1)C2=O (some centres not stated),> 10 µM (inactive),–,> 10 µM (inactive),> 10 µM (inactive),> 10 µM (inactive),> 10 µM (inactive),> 10 µM (inactive),> 10 µM (inactive),> 10 µM (inactive),> 10 µM (inactive),> 10 µM (inactive),> 10 µM (inactive),> 10 µM (inactive),> 10 µM (inactive),> 10 µM (inactive),> 10 µM (inactive),> 10 µM (inactive),> 10 µM (inactive)
OC(C#CCN1CCCC1)(c1ccccc1)c1ccccc1Cl (configuration not stated),17.1 µM (inactive),–,21.8 µM (inactive),31 µM (inactive),> 10 µM (inactive),23.9 µM (inactive),36.3 µM (inactive),26.5 µM (inactive),43.9 µM (inactive),33.4 µM (inactive),–,31 µM (inactive),27.8 µM (inactive),39.2 µM (inactive),47.1 µM (inactive),17.7 µM (inactive),37.3 µM (inactive),17.1 µM (inactive)
c1ccc(/N=C2\c3ccccc3CN2c2ccccc2)cc1,> 100 µM (inactive),46.5 µM (inactive),> 100 µM (inactive),> 100 µM (inactive),> 100 µM (inactive),> 100 µM (inactive),> 100 µM (inactive),> 100 µM (inactive),> 100 µM (inactive),> 100 µM (inactive),> 100 µM (inactive),> 100 µM (inactive),> 100 µM (inactive),> 100 µM (inactive),> 100 µM (inactive),> 100 µM (inactive),> 100 µM (inactive),–
CCC[C@H](O)[C@@H](CNc1cc(NC(C)=O)nc(NC(C)=O)n1)N(Cc1ccccc1)Cc1ccccc1,42.9 µM (inactive),34.4 µM (inactive),76.4 µM (inactive),15.7 µM (inactive),17.7 µM (inactive),19.8 µM (inactive),49.5 µM (inactive),–,41.3 µM (inactive),13.2 µM (inactive),26.5 µM (inactive),14 µM (inactive),13.5 µM (inactive),46.2 µM (inactive),49.9 µM (inactive),47 µM (inactive),17.1 µM (inactive),30.8 µM (inactive)
